Patent publication US10160705B2, “Class of HDAC inhibitors expands the renal progenitor cells population and improves the rate of recovery from acute kidney injury” (University of Pittsburgh—Of the Commonwealth System of …, priority 2011, dated 2018)
Like-named read-outs stand apart in the source and are kept apart here.

How the values were obtained:
[1] = system: RA-responsive genes, cyp26a1 and cmlc2; experiment: In situ hybridization for RA-responsive genes cyp26a1 and cmlc2 in 18-somite embryos; format: in vivo, zebrafish; conditions: 3 μM
Experimental: In situ hybridization and immunocytochemistry: In situ hybridization was performed as previously described with some modifications.142 Hybridization temperature was 65° C. Embryos were blocked in 2% blocking reagent (Roche) with 5% sheep serum in MAB (100 mM maleic acid and 150 mM NaCl [pH 7.5]). Whole-mount immunocytochemistry with 1:25 mouse anti-α6F antibody (Developmental Studies Hybridoma Bank) and 1:100 Cy3 secondary antibody (Jackson ImmunoResearch) was performed as described previously.108 Embryos were embedded in JB-4 for sectioning per the manufacturer's instructions (Polysciences), sectioned at 5 μm, and mounted with Cytoseal 60 (Richard-Allan Scientific).
HDACis are believed to lower the threshold of RA necessary to activate transcription. If PTBA treatment facilitates activation of the RA pathway, then expression of genes responsive to RA signaling should change. […] In a previous study, cmlc2 expression was assessed for RAdependent effects in 18-somite embryos (Keegan, B. R., Feldman, J. L., Begemann, G., Ingham, P. W. & Yelon, D. Retinoic acid signaling restricts the cardiac progenitor pool. Science 307, 247-249, (2005)), therefore embryos were collected at the 18-somite stage for continuity. […]

renal progenitor cells = experiment: In situ hybridization for lhx1a expression in 10-somite embryos (renal progenitor cell expansion); format: in vivo; as to Lhx1a expansion caused by analog treatment, 3 μM: key: effective (+); partially effective (+/−); ineffective (−); Analogs that killed all embryos at a given concentration before reaching 10 somites are listed as XX; as to Lhx1a expansion caused by analog treatment, 800 nM: key: effective (+); partially effective (+/−); ineffective (−); Analogs that killed all embryos at a given concentration before reaching 10 somites are listed as XX
Procedure, shortened: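 Zebrafish embryos treated with compound, then colorimetric whole-mount in situ hybridization (65° C) for lhx1a mRNA at 10 somites. Embryos with expanded kidney field counted manually as percent of total. EC50 taken as 50% point of percent-expansion trendline; compounds also classed effective, partial or ineffective versus PTBA at matched concentration.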

zebrafish embryos = experiment: Phenotypic screen for edema and survival in zebrafish larvae at 72 hpf
Procedure, shortened: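 Embryos (5/well in primary screen; 12–30 per group otherwise) exposed from 2 hpf in E3 medium with 0.5% DMSO, 10 μM in screen or stated concentrations, 28.5 °C for 70 h. At 72 hpf, edema scored by phenotype classification (dominant phenotype in ≥4/5 embryos in screen); survival vs 0 μM by two-tailed Fisher's exact test (p<0.05).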

[2] = number of larvae (of 36), 3 μM from 2 hpf, scored at 72 hpf

O=C(O)CCCSc1ccccc1 [UPHD-00020, 4-(phenylthio)butanoic acid (PTBA)]
cmlc2 expression decreased, percent of treated embryos [1]: 100% | cyp26a1 expression increased, percent of treated embryos [1]: 100% | Lhx1a expansion caused by analog treatment, 800 nM (renal progenitor cells; 800 nM from 2 hpf, 10-somite embryos): +/− | Lhx1a expansion caused by analog treatment, 1.5 μM (renal progenitor cells; 1.5 μM from 2 hpf, 10-somite embryos): + | Lhx1a expansion caused by analog treatment, 3 μM (renal progenitor cells; 3 μM from 2 hpf, 10-somite embryos): + | responders at 1.5 µM (renal progenitor cells; Danio rerio, 1.5 μM from 2 hpf, 10-somite embryos, read-out: lhx1a expansion, percent of treated embryos): 83% | responders at 3 µM (renal progenitor cells; Danio rerio, 3 μM PTBA added at 8 hpf after 0.5% DMSO at 5 hpf (HUA study), read-out: lhx1a expansion, percent of treated embryos): 97% | responders at 3 µM (renal progenitor cells; Danio rerio, 3 μM PTBA together with HUA (hydroxyurea and aphidicolin), read-out: lhx1a expansion, percent of treated embryos): 13% | responders at 3 µM (renal progenitor cells; Danio rerio, 3 μM from 2 hpf, 10-somite embryos, read-out: lhx1a expansion, percent of treated embryos): 95% | responders at 3 µM (renal progenitor cells; Danio rerio, embryos injected with 200 pg DN-RARα mRNA, 3 μM PTBA from 5 hpf, read-out: lhx1a expansion, percent of treated embryos): 19% | responders at 3 µM (renal progenitor cells; Danio rerio, mock-injected embryos, 3 μM PTBA from 5 hpf, read-out: lhx1a expansion, percent of treated embryos): 90% | responders at 0.2 µM (renal progenitor cells; Danio rerio, percent of embryos with expanded kidney field, 200 nM, read-out: Expansion of Cells (including repeats* and recounts**) 200 nM): 10% | responders at 0.4 µM (renal progenitor cells; Danio rerio, percent of embryos with expanded kidney field, 400 nM, read-out: Expansion of Cells (including repeats* and recounts**) 400 nM): 10% | responders at 3 µM (renal progenitor cells; Danio rerio, percent of embryos with expanded kidney field, 3 μM, read-out: Expansion of Cells (including repeats* and recounts**) 3 μM): 100% | EC50 (renal progenitor cells; Danio rerio, first pass EC50 from percent expansion (Excel trendline), average where several experiments): 1.4 µM | larvae with edemic phenotype / pericardial edema by 72 hpf (zebrafish embryos; 3 μM PTBA, 25 μM PBA, 200 nM TSA): 92% | phenotype in initial chemical screen (zebrafish embryos; 10 μM, larvae at 72 hpf): pericardial edema | survival to 72 hpf (zebrafish embryos; 10 μM, n=90): died before 72 hpf | Dead (zebrafish embryos; [2]): 1 | Edemic 1 (E1) (zebrafish embryos; [2]): 13 | Edemic 2 (E2) (zebrafish embryos; [2]): 17 | Edemic 3 (E3) (zebrafish embryos; [2]): 5 | Wild-type (WT) (zebrafish embryos; [2]): 0
